Data set [1] has as its target T1, human melanocyte tyrosinase (Homo sapiens, UniProt P14679).
T1 construct: Human melanocytes are prepared and cultured; endogenous in cells; host or cells: cultured human melanocytes
T1 sequence (P14679 19-529): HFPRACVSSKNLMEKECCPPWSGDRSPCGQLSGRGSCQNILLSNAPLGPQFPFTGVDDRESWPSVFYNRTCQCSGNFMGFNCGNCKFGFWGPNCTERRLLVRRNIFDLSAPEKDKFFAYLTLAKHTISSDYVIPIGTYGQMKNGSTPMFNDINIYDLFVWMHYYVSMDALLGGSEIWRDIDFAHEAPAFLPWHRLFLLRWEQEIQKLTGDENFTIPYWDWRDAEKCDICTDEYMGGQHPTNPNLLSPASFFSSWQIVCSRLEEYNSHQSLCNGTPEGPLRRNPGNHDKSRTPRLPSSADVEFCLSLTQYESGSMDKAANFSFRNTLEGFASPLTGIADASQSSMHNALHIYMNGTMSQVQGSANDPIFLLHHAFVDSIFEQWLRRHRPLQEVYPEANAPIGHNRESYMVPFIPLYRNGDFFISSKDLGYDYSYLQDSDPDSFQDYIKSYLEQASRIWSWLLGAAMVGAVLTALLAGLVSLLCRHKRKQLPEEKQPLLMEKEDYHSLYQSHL
Description: dopa-oxidase activity of human melanocyte tyrosinase after culturing melanocytes with compound. The class given is cell-based. To be noted: human melanocytes cultured three days, 5 mM L-dopa, absorbance 475 nm, read-out: Percentage of inhibition. Here is the method:
The effectiveness of the compound of formula (1) as a tyrosinase inhibitor is determined by evaluating its effect on the dopa-oxidase activity of human melanocyte tyrosinase. The compound tested is N,N'-di(3-hydroxybenzyl)ethylenediamine-N,N'-diacetic acid of formula (II): [drawing 5]
Human melanocytes are prepared and cultured and then introduced into media containing different, non-cytotoxic concentrations of the compound of formula (II) (0.1 mM, 0.25 mM, 0.5 mM and 0.75 mM). After three days, the melanocytes are "trypsinized" in a mixture of trypsin/0.05% EDTA/0.02% in a phosphate buffer (50 mM at pH 6.8), washed three times in the phosphate buffer containing 1% (w/v) Triton x-100 and subjected to ultrasound. After centrifugation, samples are taken and mixed with 5 mM L-dopa in phosphate buffer. The tyrosinase activity is evaluated by spectrophotometry by measuring the increase in the absorbance at 475 nm because of the formation of dopachrome from 5 mM dope. The absorbance is read on a microplate reader at 25° C. for 60 min.
The activity of the cellular tyrosinase is measured relative to a standard range prepared with commercial tyrosinase.

The test system of a further data set is Human melanocytes. As to the kind of experiment: cytotoxicity to cultured human melanocytes. To be noted: 0.1 mM, 0.25 mM, 0.5 mM and 0.75 mM in human melanocyte culture. In kind it is cell-based.

SMILES strings stand for the structures.

What is called inhibition is how much of the control response was suppressed. On to `O=C(O)CN(CCN(CC(=O)O)Cc1cccc(O)c1)Cc1cccc(O)c1` [compound of formula (II), N,N'-di(3-hydroxybenzyl)ethylenediamine-N,N'-diacetic acid], for which the inhibition at 100 µM in data set [1] (0.1 mM compound) came to 19%. Further, in data set [1] (0.25 mM compound), the inhibition at 250 µM came to 30%. For the same compound, the inhibition at 500 µM in data set [1] (0.5 mM compound) turned out to be 33%. The inhibition at 750 µM in data set [1] (0.75 mM compound) worked out at 42%. In addition, in the data set on Human melanocytes, the “cytotoxicity of the concentrations used” value is reported as “non-cytotoxic”.

Values taken from patent publication US5834518A, “Use of N,N'-dibenzylethylenediamine-N,N'-diacetic acid derivatives as depigmenting agents” (L'Oreal, priority 1996, dated 1998).
